In patent publication US20240226001A1, “Contact Lenses And Other Eye-Contacting Matrices Carrying Mitochondrially-Targeted Antioxidants” (Mitotech S.A., priority 2015, published 2024):
Values joined by “and” are separate entries in the source; they are usually repeats but may differ in a detail not shown here. Equal entries are not always repeated. Where two headings read alike, the source gives them in different places.

Key:
[1] = Adsorption of SkQ1 from saline on soft disposable contact lens, retention in saline, extraction with 50% acetonitrile (Example 2); format: physicochemical
Procedure: Lens pre-wash: soft disposable contact lenses were thoroughly rinsed with saline solution (0.9% NaCl) and incubated in this solution overnight. Preparation of 2.5 μM SkQ1 solution: 4 mL of saline solution was placed in dark glass vials. 40 μL of 500 μM SkQ1 solution in 50% ethanol was added into each vial yielding 2.5 μM SkQ1 solution. Solution in the vial was thoroughly mixed and then incubated overnight to yield A1 series solution. Then aliquots of A1 series were collected from these vials.
During the experiment a pre-washed contact lens was placed into a glass vial with 2.5 uM SkQ1 solution and incubated at +4° C.-+8 °C for 4 days. Then the contact lenses were removed from the 2.5 μM SkQ1 solution, rinsed with saline solution and placed into fresh saline solution and incubated overnight at +4° C.-+8° C. to yield A2 series solution. Aliquots of the A2 series solution were collected from the vials where lenses were incubated in 2.5 μM SkQ1 solution.
After the above described overnight lens incubation in saline solution, lenses were placed in vials containing 500 μL of 50% acetonitrile and mixed during 1 hour at +25° C. Then aliquots of this acetonitrile solution was collected (A3 series).
The content of SkQ1 in the collected aliquots was analyzed using LCMS/MS.

[2] = SkQ1 content of control lenses (intact lenses kept in saline solution) (Example 3); format: physicochemical; conditions: for SkQ1 conc. in control lenses: 50% acetonitrile extract
Procedure: (§1) The experiment was performed as follows: contact lenses were supplemented with SkQ1 as described in Example 2, then some lenses were placed on rabbit eyes and some lenses left aside in saline solution. At certain time points (see below in the table 3) contact lenses were removed from rabbits' eyes (experimental lenses) or saline solution (control lenses) and such rabbits were euthanized and their cornea were taken for SkQ1 content analysis. Then SkQ1 was extracted from the collected lenses and cornea samples using 50% acetonitrile solution and the SkQ1 amount in the extracts was determined using LCMS/MS.

[3] = test system: rabbit eyes; experiment: SkQ1 content of experimental lenses taken from rabbits eyes (Example 3); format: in vivo; conditions: for SkQ1 conc. in experimental lenses: 50% acetonitrile extract; for SkQ1 conc. in experimental lenses / SkQ1 amount in experimental lenses: single samples; for Average SkQ1 amount in experimental lenses: average of 2 samples
Procedure: as §1

[4] = test system: rabbit cornea; experiment: SkQ1 concentration in rabbit cornea after instillation of eye drops (control experiment); format: in vivo; conditions: eye drops containing 1.55 μg/mL of SkQ1, FIG. 2B
Procedure: Thus SkQ1 was efficiently transferred from the experimental lens into the eye. In the control experiment, SkQ1 was administered into the rabbit eye by instillation of eye drops containing 1.55 μg/mL of SkQ1. At certain time points, samples of rabbit cornea were taken and analyzed for SkQ1 content using LCMS/MS. […] Thus, the mode of accumulation of SkQ1 in the cornea is different when SkQ1 is administered via contact lenses (compare graphs on FIG. 2A and FIG. 2B).

[5] = Adsorption of MTCs on a matrix from PBS versus 50% ethanol, HPLC (Example 4); format: physicochemical; conditions: 250 nM solution in dark glass vials; adsorption in 50% ethanol negligible
Procedure: It must be noted that SkQ3 differs from SkQ1 by the antioxidant moiety (A moiety in the formula I—see above), while SkB1 differs from SkQ1 by both the linker (L moiety) and targeting moiety (B moiety). So in this experiment, variations in all 3 parts of MTC molecule were successfully used.
The experiment was conducted as follows: 990 μl of phosphate buffered saline (PBS) or 50% water-ethanol solution (SkQ adsorption in 50% ethanol is negligible) was placed in dark glass chromatography vials (Waters, p/n 186000847c). 10 ul of 25 μM SkQ solution in ethanol was then added to each vial, yielding a 250 nM solution. The vials were vigorously mixed and the SkQ concentration in each vial (100 μl samples) was analyzed by HPLC using a Luna C 18 (2), Phenomenex, 250 MM '4.6 mm column with a sorbent particle size of 5 μm. The liquid phase used was acetonitrile:water (56:44), and the flow speed was 1 ml/min. at 25° C. UV detection was performed at A260.

[6] = test system: rabbit cornea; experiment: SkQ1 concentration in rabbit cornea after SkQ1-supplemented contact lens (Example 3); format: in vivo; conditions: for SkQ1 nM in cornea / SkQ1 ng per g of cornea / SkQ1 concentration in the cornea (extract): single samples
Procedure: as §1

[7] = as above; format: in vivo; conditions: rabbit; for concentration at 30 min / concentration at 1 h / concentration at 2 h: topical; for concentration at 30 min: 30 min after lens placement; for concentration at 1 h: 1 hour after lens placement; for concentration at 2 h: 2 hours after lens placement
Procedure: as §1

[8] = A1 series: 2.5 μM SkQ1 saline solution before lens
[9] = A2 series: saline solution after lens incubation
[10] = A3 series: 50% acetonitrile extract of lens, 1 hour at +25° C.
[11] = cornea (50% acetonitrile extract), single samples, read-out: SkQ1 concentration in the cornea (extract)
[12] = cornea, average of 2 samples, read-out: SkQ1 Aver. nM in cornea
[13] = cornea, single samples, read-out: SkQ1 nM in cornea
[14] = cornea, single samples, read-out: SkQ1 ng per g of cornea

SMILES: CC1=C(C)C(=O)C(CCCCCCCCCC[P+](c2ccccc2)(c2ccccc2)c2ccccc2)=CC1=O [SkQ1]
- Calculated total SkQ1 amount in the vial, M ± SE (n = 9) [1, 8]: 3.69 µg and 3.69 ± 0.11 µg
- SkQ1 concentration found, M ± SE (n = 9) [1, 8]: 0.97 ± 0.03 µg/mL
- Calculated total SkQ1 amount in the vial, M ± SE (n = 9) [1, 9]: 0.19 µg and 0.19 ± 0.07 µg
- SkQ1 concentration found, M ± SE (n = 9) [1, 9]: 0.1 ± 0.04 µg/mL
- Calculated total SkQ1 amount in the vial (=total SkQ1 amount extracted from the lens), M ± SE (n = 9) [1, 10]: 2.5 µg and 2.5 ± 0.08 µg
- SkQ1 concentration found, M ± SE (n = 9) [1, 10]: 9.9 ± 0.33 µg/mL
- SkQ1 amount in control lenses ([2]; 30 min in saline): 4.611 nmoles/sample
- SkQ1 conc. in control lenses ([2]; 30 min in saline): 5.690 µg/mL
- SkQ1 concentration on intact control lenses left in saline over time ([2]; 30 min to 6 hours, FIG. 1): stayed stable
- SkQ1 amount in control lenses ([2]; 1 hour in saline): 4.966 nmoles/sample
- SkQ1 conc. in control lenses ([2]; 1 hour in saline): 6.129 µg/mL
- SkQ1 amount in control lenses ([2]; 2 hours in saline): 5.107 nmoles/sample
- SkQ1 conc. in control lenses ([2]; 2 hours in saline): 6.302 µg/mL
- SkQ1 amount in control lenses ([2]; 6 hours in saline): 4.377 nmoles/sample
- SkQ1 conc. in control lenses ([2]; 6 hours in saline): 5.052 µg/mL
- SkQ1 conc. in experimental lenses ([3]; 30 min on rabbit eye): 2.868 µg/mL and 3.006 µg/mL
- Average SkQ1 amount in experimental lenses ([3]; 30 min on rabbit eye): 2.38 nmoles/sample
- SkQ1 amount in experimental lenses ([3]; 30 min on rabbit eye): 2.324 nmoles/sample and 2.436 nmoles/sample
- Amount of SkQ1 in the contact lens placed on the eye over time ([3]; 30 min to 6 hours, FIG. 1): decreased with time
- SkQ1 conc. in experimental lenses ([3]; 1 hour on rabbit eye): 3.339 µg/mL and 3.200 µg/mL
- Average SkQ1 amount in experimental lenses ([3]; 1 hour on rabbit eye): 2.65 nmoles/sample
- SkQ1 amount in experimental lenses ([3]; 1 hour on rabbit eye): 2.706 nmoles/sample and 2.593 nmoles/sample
- SkQ1 conc. in experimental lenses ([3]; 2 hours on rabbit eye): 2.77 µg/mL and 2.854 µg/mL
- Average SkQ1 amount in experimental lenses ([3]; 2 hours on rabbit eye): 2.279 nmoles/sample
- SkQ1 amount in experimental lenses ([3]; 2 hours on rabbit eye): 2.244 nmoles/sample and 2.313 nmoles/sample
- SkQ1 conc. in experimental lenses ([3]; 6 hours on rabbit eye): 1.448 µg/mL and 1.229 µg/mL
- Average SkQ1 amount in experimental lenses ([3]; 6 hours on rabbit eye): 1.114 nmoles/sample
- SkQ1 amount in experimental lenses ([3]; 6 hours on rabbit eye): 1.174 nmoles/sample and 1.053 nmoles/sample
- Time of maximum SkQ1 concentration in cornea [4]: 30 min
- Concentration in PBS as % of the concentration in 50% ethanol [5]: 51.7%
- SkQ1 nM in cornea ([6]; 30 min after lens placement): 4.96 nM
- SkQ1 ng per g of cornea ([6]; 30 min after lens placement): 3.06 ng per g of cornea
- SkQ1 concentration in the cornea (extract) ([6]; 30 min after lens placement): 0.51 ng/mL
- SkQ1 nM in cornea ([6]; 1 hour after lens placement): 14.30 nM
- SkQ1 ng per g of cornea ([6]; 1 hour after lens placement): 8.82 ng per g of cornea
- SkQ1 concentration in the cornea (extract) ([6]; 1 hour after lens placement): 1.47 ng/mL
- SkQ1 nM in cornea ([6]; 2 hours after lens placement): 13.32 nM
- SkQ1 ng per g of cornea ([6]; 2 hours after lens placement): 8.22 ng per g of cornea
- SkQ1 concentration in the cornea (extract) ([6]; 2 hours after lens placement): 1.37 ng/mL
- Concentration of SkQ1 in the rabbits' eye cornea over time ([6]; administered via contact lens, FIG. 2A): gradually increased
- concentration at 30 min [7, 11]: 0.64 ng/mL
- concentration at 1 h [7, 11]: 1.56 ng/mL
- concentration at 2 h [7, 11]: 1.46 ng/mL
- concentration at 6 h ([7]; cornea, other: SkQ1-supplemented contact lens placed on the eye, 6 hours after lens placement, average of 2 samples, read-out: SkQ1 Aver. nM in cornea): 17.8 nM
- concentration at 30 min [7, 12]: 5.59 nM
- concentration at 30 min [7, 13]: 6.22 nM
- concentration at 30 min [7, 14]: 3.84 ng/g
- concentration at 1 h [7, 12]: 14.7 nM
- concentration at 1 h [7, 13]: 15.2 nM
- concentration at 1 h [7, 14]: 9.36 ng/g
- concentration at 2 h [7, 12]: 13.8 nM
- concentration at 2 h [7, 13]: 14.2 nM
- concentration at 2 h [7, 14]: 8.76 ng/g

SMILES: CC1=C(C)C(=O)C(CCCCCCCCCC[P+](c2ccccc2)(c2ccccc2)c2ccccc2)=C(C)C1=O [SkQ3]
- Concentration in PBS as % of the concentration in 50% ethanol [5]: 29.6%

SMILES: COc1ccc2c(CC(=O)OCCCCCCCC3=CC(=O)C(C)=C(C)C3=O)c3[n+](cc2c1OC)CCc1cc2c(cc1-3)OCO2 [SkQB1]
- Concentration in PBS as % of the concentration in 50% ethanol [5]: 63.8%
